One experiment addresses T1, Adenosine A2a receptor (Homo sapiens, UniProt P29274).
T1 construct: expressed in transfected cells; host or cells: CHO cell membranes
Kind of experiment: Adenosine receptor TR-FRET binding assay, A2a. The following applies: displacement of 100 nM CA200645, CHO cell membranes. As for the experimental part:
(§1) All FRET binding experiments were conducted at room temperature in white 384-well plates, in assay binding buffer containing 1× LabMed (Cisbio, France), 100 μg/mL saponin, 1% DMSO and 0.02% pluronic acid. Binding of the fluorescently labelled Adenosine receptor antagonist XAC (CA200645, FRET acceptor) to terbium-labelled A1, A2a, A2b and A3 adenosine receptors (FRET donors) was detected by time-resolved FRET due to the close proximity of the donor and acceptor in a binding event. To investigate the ability of unlabelled test compounds to bind to Adenosine A1, A2a, A2b and A3 receptors, dose response curves were constructed that determined the ability of a range of concentrations to inhibit the binding of 30 nM CA200645 to the A2b receptor and 100 nM CA200645 to the A1, A2a, and A3 receptor.
(§2) Serial dilution (1:3 dilutions) of test compounds in neat DMSO and transfer of a 400 nL sample of test compound into the assay plate was carried out using the Mosquito (TTP Labtech, UK). The compound samples were incubated for 2 hours at room temperature with a fixed concentration of CA200645 defined for each receptor (see above) and CHO cell membranes containing the human Adenosine A1 (0.5 μg/well), A2a (0.3 μg/well), A2b (1 μg/well) or A3 (1 μg/well) receptor in 40 μL of assay buffer. Total and non-specific binding of CA200645 was determined in the absence and presence of 10 μM XAC, respectively.
(§3) Following 2 hours incubation, the level of CA200645 binding was detected on a Pherastar FSX (BMG Labtech, Germany) using standard TR-FRET settings. The terbium donor was excited with three laser flashes at a wavelength of 337 nm, and donor and acceptor emission was detected at 620 nm and 665 nm wavelengths, respectively. FRET ratios were obtained by multiplying the acceptor/donor ratio value by 10,000. Specific binding was determined by subtracting the non-specific binding FRET ratio from the total binding FRET ratio. Compound IC50 curves were analysed using GraphPad Prism 7.0 (GraphPad, USA) and Ki affinity values were determined from the obtained […] values using the method of Cheng and Prusoff.

The next experiment deals with T2, Adenosine A2b receptor (Homo sapiens, UniProt P29275).
T2 construct: expressed in transfected cells; host or cells: CHO cell membranes
T2 sequence (P29275 1-332): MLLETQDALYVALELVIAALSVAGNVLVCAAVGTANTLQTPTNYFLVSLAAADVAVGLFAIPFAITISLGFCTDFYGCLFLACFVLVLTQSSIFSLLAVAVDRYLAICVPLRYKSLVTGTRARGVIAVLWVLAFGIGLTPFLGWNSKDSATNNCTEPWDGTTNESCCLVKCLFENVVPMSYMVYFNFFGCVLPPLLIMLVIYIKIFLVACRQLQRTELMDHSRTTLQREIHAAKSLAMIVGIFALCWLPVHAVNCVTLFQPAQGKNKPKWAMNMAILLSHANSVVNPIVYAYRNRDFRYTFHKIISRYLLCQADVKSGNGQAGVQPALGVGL
Kind of experiment: Adenosine receptor TR-FRET binding assay, A2b. The following applies: Table 9, further testing; displacement of 30 nM CA200645, CHO cell membranes. Here is the method:
as §1, §2, §3
A general note: TR-FRET usually uses a lanthanide donor and a delayed reading to cut background.

In the next experiment the target is T3, Adenosine A1 receptor (Homo sapiens, UniProt P30542).
T3 construct: expressed in transfected cells; host or cells: CHO cell membranes
T3 sequence (P30542 1-326): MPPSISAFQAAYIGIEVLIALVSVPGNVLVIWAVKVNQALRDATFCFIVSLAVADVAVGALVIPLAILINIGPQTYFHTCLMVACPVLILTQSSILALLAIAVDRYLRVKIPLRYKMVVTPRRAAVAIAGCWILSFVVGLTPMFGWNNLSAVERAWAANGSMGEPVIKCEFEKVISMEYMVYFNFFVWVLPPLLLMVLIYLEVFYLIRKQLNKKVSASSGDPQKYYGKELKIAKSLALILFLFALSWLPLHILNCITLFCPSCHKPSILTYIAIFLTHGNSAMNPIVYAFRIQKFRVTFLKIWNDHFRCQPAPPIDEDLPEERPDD
Kind of experiment: Adenosine receptor TR-FRET binding assay, A1. The following applies: Table 9, further testing; displacement of 100 nM CA200645, CHO cell membranes. As for the experimental part:
as §1, §2, §3

A further experiment addresses T4, Adenosine A3 receptor (Homo sapiens, UniProt P0DMS8).
T4 construct: expressed in transfected cells; host or cells: CHO cell membranes
T4 sequence (P0DMS8 1-318): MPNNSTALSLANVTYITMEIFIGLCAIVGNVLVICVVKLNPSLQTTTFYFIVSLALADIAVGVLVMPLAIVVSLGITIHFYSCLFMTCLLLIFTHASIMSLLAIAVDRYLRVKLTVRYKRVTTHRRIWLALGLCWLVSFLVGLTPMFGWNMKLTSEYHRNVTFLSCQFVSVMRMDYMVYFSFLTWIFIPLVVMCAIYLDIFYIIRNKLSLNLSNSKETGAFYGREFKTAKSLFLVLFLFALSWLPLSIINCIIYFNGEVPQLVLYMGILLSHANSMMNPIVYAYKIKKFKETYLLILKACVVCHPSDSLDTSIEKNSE
Put plainly: Adenosine receptor TR-FRET binding assay, A3. The conditions noted are these: Table 9, further testing; displacement of 100 nM CA200645, CHO cell membranes; read-out: A3 Ki. As for the experimental part:
as §1, §2, §3

What is called Ki is the dissociation constant of the complex between target and ligand, obtained from inhibition or displacement.

T1 sequence (P29274 whole entry): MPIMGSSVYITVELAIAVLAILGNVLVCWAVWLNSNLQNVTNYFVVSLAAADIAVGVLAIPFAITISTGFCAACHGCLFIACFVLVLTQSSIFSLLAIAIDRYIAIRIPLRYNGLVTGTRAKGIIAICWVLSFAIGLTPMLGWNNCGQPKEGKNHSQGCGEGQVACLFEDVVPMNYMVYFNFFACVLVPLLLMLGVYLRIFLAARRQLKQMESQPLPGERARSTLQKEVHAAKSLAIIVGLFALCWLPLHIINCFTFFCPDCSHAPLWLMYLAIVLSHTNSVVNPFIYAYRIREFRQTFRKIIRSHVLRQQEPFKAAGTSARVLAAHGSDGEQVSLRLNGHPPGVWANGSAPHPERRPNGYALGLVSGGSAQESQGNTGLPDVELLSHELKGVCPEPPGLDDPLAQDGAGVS

Consider `CCOC(=O)c1nnc(-c2ccco2)nc1N` [Example 1, Ethyl 5-amino-3-(2-furyl)-1,2,4-triazine-6-carboxylate], for which the Ki turned out to be 60 nM at Adenosine A2a receptor (Table 8, Cheng and Prusoff); 61 nM on Adenosine A2a receptor (Table 9, further testing); 382 nM on Adenosine A2b receptor; 314 nM at Adenosine A1 receptor; 101 nM on Adenosine A3 receptor.
For `Cc1ccc(-c2ncc(C(=O)NCc3ncccc3C)c(N)n2)o1` [Example 3.1, 4-Amino-2-(5-methyl-2-furyl)-N-[(3-methyl-2-pyridyl)methyl]pyrimidine-5-carboxamide], the Ki on Adenosine A2a receptor (Table 9, further testing) is 424 nM; on Adenosine A2b receptor, 5540 nM; at Adenosine A1 receptor, 995 nM; at Adenosine A3 receptor, 818 nM.
As for `Nc1nc(-c2ccco2)ncc1C(=O)NCc1cccc(F)c1` [Example 5.13, 4-Amino-N-[(3-fluorophenyl)methyl]-2-(2-furyl)pyrimidine-5-carboxamide], the Ki at Adenosine A2a receptor (Table 8, Cheng and Prusoff) came out at 20 nM; on Adenosine A2a receptor (Table 9, further testing) it was 20 nM; on Adenosine A2b receptor, 3970 nM; on Adenosine A1 receptor it was 3550 nM; at Adenosine A3 receptor, 2680 nM.
Turning to `Nc1nc(-c2ccco2)ncc1C(=O)NCc1ccc(F)cc1` [Example 5.14, 4-Amino-N-[(4-fluorophenyl)methyl]-2-(2-furyl)pyrimidine-5-carboxamide], the Ki at Adenosine A2a receptor (Table 8, Cheng and Prusoff) is 33 nM; at Adenosine A2a receptor (Table 9, further testing), 33 nM; on Adenosine A2b receptor, 6630 nM; on Adenosine A3 receptor it was 1820 nM.
Consider `Nc1nc(-c2ccco2)ncc1C(=O)NCc1ccccc1Cl` [Example 5.15, 4-Amino-N-[(2-chlorophenyl)methyl]-2-(2-furyl)pyrimidine-5-carboxamide], for which the Ki is 5.1 nM on Adenosine A2a receptor (Table 8, Cheng and Prusoff); 5.1 nM on Adenosine A2a receptor (Table 9, further testing); 1210 nM on Adenosine A2b receptor; 3990 nM on Adenosine A1 receptor; 2170 nM on Adenosine A3 receptor.
In the case of `Nc1nc(-c2ccco2)ncc1C(=O)NCc1cc(F)cc(F)c1` [Example 5.17, 4-Amino-N-[(3,5-difluorophenyl)methyl]-2-(2-furyl)pyrimidine-5-carboxamide], the inhibitory constant (Ki) is 24 nM on Adenosine A2a receptor (Table 8, Cheng and Prusoff); 24 nM at Adenosine A2a receptor (Table 9, further testing); 1890 nM at Adenosine A1 receptor; 3050 nM on Adenosine A3 receptor.
In the case of `CCn1ccnc1CNC(=O)c1cnc(-c2ccco2)nc1N` [Example 5.26, 4-Amino-N-[(1-ethylimidazol-2-yl)methyl]-2-(2-furyl)pyrimidine-5-carboxamide], the Ki at Adenosine A2a receptor (Table 8, Cheng and Prusoff) came out at 24 nM; on Adenosine A2a receptor (Table 9, further testing) it was 24 nM; at Adenosine A2b receptor, 4690 nM; on Adenosine A1 receptor, 4860 nM; on Adenosine A3 receptor it was 6030 nM.
As for `Nc1nc(-c2ccco2)ncc1C(=O)NCc1ccc(C(F)(F)F)cc1` [Example 5.28, 4-amino-2-(2-furyl)-N-[[4-(trifluoromethyl)phenyl]methyl]pyrimidine-5-carboxamide], the Ki on Adenosine A2a receptor (Table 8, Cheng and Prusoff) was 298 nM; at Adenosine A2a receptor (Table 9, further testing), 298 nM; on Adenosine A1 receptor, 5660 nM; at Adenosine A3 receptor, 5780 nM.
For `Nc1nc(-c2ccco2)ncc1C(=O)NCc1cccc(C(F)(F)F)c1` [Example 5.29, 4-Amino-2-(2-furyl)-N-[[3-(trifluoromethyl)phenyl]methyl]pyrimidine-5-carboxamide], the Ki at Adenosine A2a receptor (Table 8, Cheng and Prusoff) worked out at 52 nM; on Adenosine A2a receptor (Table 9, further testing) it was 52 nM; at Adenosine A2b receptor, 5470 nM; at Adenosine A1 receptor, 1700 nM; on Adenosine A3 receptor, 2460 nM.
For `Nc1nc(-c2ccco2)ncc1C(=O)NCc1ccc2[nH]ccc2c1` [Example 5.41, 4-Amino-2-(2-furyl)-N-(1H-indol-5-ylmethyl) pyrimidine-5-carboxamide], the Ki at Adenosine A2a receptor (Table 9, further testing) stood at 52 nM; at Adenosine A2b receptor, 1090 nM; on Adenosine A1 receptor it was 4740 nM.
With `Nc1nc(-c2ccco2)ncc1C(=O)NCc1cc(F)cc(C(F)(F)F)c1` [Example 5.44, 4-Amino-N-[[3-fluoro-5-(trifluoromethyl)phenyl]methyl]-2-(2-furyl)pyrimidine-5-carboxamide], the Ki at Adenosine A2a receptor (Table 9, further testing) is 78 nM; at Adenosine A1 receptor it was 364 nM; on Adenosine A3 receptor, 1090 nM.
Regarding `Cc1cccnc1C(C)NC(=O)c1cnc(-c2ccco2)nc1N` (stereo not drawn) [Example 5.57, 4-Amino-2-(2-furyl)-N-[1-(3-methyl-2-pyridyl)ethyl]pyrimidine-5-carboxamide], the Ki on Adenosine A2a receptor (Table 9, further testing) stood at 40 nM; at Adenosine A1 receptor, 4480 nM; on Adenosine A3 receptor it was 1230 nM.
As to `Nc1nc(-c2ccco2)ncc1C(=O)NCc1nccc(C(F)(F)F)n1` [Example 5.59, 4-Amino-2-(2-furyl)-N-[[4-(trifluoromethyl)pyrimidin-2-yl]methyl]pyrimidine-5-carboxamide], the Ki at Adenosine A2a receptor (Table 9, further testing) came out at 236 nM; at Adenosine A3 receptor it was 4610 nM.
Take `Nc1nc(-c2ccco2)ncc1C(=O)N[C@H](CO)c1ccccc1` [Example 5.61, 4-Amino-2-(2-furyl)-N-[(1S)-2-hydroxy-1-phenyl-ethyl]pyrimidine-5-carboxamide]: the Ki at Adenosine A2a receptor (Table 9, further testing) came out at 54 nM; on Adenosine A1 receptor it was 4080 nM; on Adenosine A3 receptor, 1470 nM.
`Cc1cccnc1CNC(=O)c1cnc(-c2ccc(F)cc2)nc1N` [Example 14, 4-Amino-2-(4-fluorophenyl)-N-[(3-methyl-2-pyridyl)methyl]pyrimidine-5-carboxamide]: the Ki was 744 nM on Adenosine A2a receptor (Table 8, Cheng and Prusoff); 744 nM on Adenosine A2a receptor (Table 9, further testing); 740 nM on Adenosine A1 receptor; 202 nM at Adenosine A3 receptor.
On to `Cc1cccnc1CNC(=O)c1c(N)nc(-c2ccco2)nc1-n1cccn1` [Example 19, 4-Amino-2-(2-furyl)-N-[(3-methyl-2-pyridyl)methyl]-6-pyrazol-1-yl-pyrimidine-5-carboxamide], for which the Ki at Adenosine A2a receptor (Table 8, Cheng and Prusoff) came to 105 nM; on Adenosine A2a receptor (Table 9, further testing), 105 nM; at Adenosine A1 receptor it was 871 nM; on Adenosine A3 receptor, 675 nM.
`Cc1cccnc1CNC(=O)c1c(N)nc(-c2ccco2)nc1OCCN1CCNCC1` [Example 23.2, 4-Amino-2-(2-furyl)-N-[(3-methyl-2-pyridyl)methyl]-6-(2-piperazin-1-ylethoxy)pyrimidine-5-carboxamide]: the Ki on Adenosine A2a receptor (Table 9, further testing) was 287 nM; at Adenosine A1 receptor, 7550 nM; at Adenosine A3 receptor, 6700 nM.
For the compound `CC(C)n1ncnc1CNC(=O)c1c(N)nc(-c2cccc(C#N)c2)nc1OCCF` [Example 24.4, 4-Amino-2-(3-cyanophenyl)-6-(2-fluoroethoxy)-N-[(2-isopropyl-1,2,4-triazol-3-yl)methyl]pyrimidine-5-carboxamide], the Ki came to 1.08 nM at Adenosine A2a receptor (Table 9, further testing); 22 nM at Adenosine A1 receptor; 611 nM at Adenosine A3 receptor.
`Cc1cccnc1CNC(=O)c1c(N)nc(-c2cccc(C#N)c2)nc1OCCF` [Example 24.8, 4-Amino-2-(3-cyanophenyl)-6-(2-fluoroethoxy)-N-[(3-methyl-2-pyridyl)methyl]pyrimidine-5-carboxamide]: the Ki on Adenosine A2a receptor (Table 9, further testing) was found to be 0.1 nM; at Adenosine A1 receptor it was 3.8 nM; at Adenosine A3 receptor, 28.5 nM.

(Values after patent US20200339548A1, “PYRIMIDINE DERIVATIVES AND THEIR USE FOR THE TREATMENT OF CANCER” (Adorx Therapeutics Limited, priority 2017, published 2020).)
